Converted amounts (≈) assume the structure as drawn. Like-named read-outs stand apart in the source and are kept apart here.
Experiments:
L1210 Leukämiezellen = test: Colony formation of L1210 leukaemia cells in soft agar (cytotoxicity in vitro); assay type: cell-based, Maus; settings: Mus musculus
Source text: Die zytostatische Wirksamkeit der erfindungsgemäßen Verbindungen wurde anhand von L1210 Leukämiezellen der Maus getestet. Hierzu wurde die Koloniebildung von L1210 Leukämiezellen in Agarplatten herangezogen. Diese Methode dient zum Nachweis des Einflusses der Testsubstanzen auf das Wachstumsverhalten der Zellen über 1 Stunde oder über mehrere Generationen. Bei einer Zellzykluszeit von 10-12 Stunden werden dabei in der Testzeit von 7 Tagen etwa 14 aufeinanderfolgende Generationen beobachtet. Die erfindungsgemäßen zytostatisch wirksamen Substanzen bewirken in diesem Test eine Reduktion der zu beobachtenden Koloniezahl gegenüber einer unbehandelten Kontrollprobe.
Verfahrensweise zur Ermittlung der Koloniebildung von L1210 Leukämiezellen in Soft-Agar
500 Leukämiezellen pro Platte wurden mit unterschiedlichen Konzentrationen der Testsubstanz 1 Stunde bei 37°C inkubiert. Anschließend wurden die Zellen zweimal mit McCoy5A-Medium gewaschen und schließlich in Petrischalen nach Zugabe von 0,3 % Agar ausgegossen. Kontrollen wurden lediglich mit frischem Medium inkubiert. Anstelle der einstündigen Inkubation wurden in manchen Fällen unterschiedliche Konzentrationen und Testsubstanzen der oberen Agarschicht zugemischt, um so eine kontinuierliche Exposition der Zellen über die gesamte Inkubationszeit zu erreichen. Nach Erstarren des Agars wurden die Platten im Brutschrank 7 Tage bei 37°C inkubiert (5 Vol.-% CO₂, 95 % relative Luftfeuchtigkeit). Anschließend wurde die Zahl der entstandenen Kolonien mit einem Durchmesser von mehr als 60 µm gezählt. Die Ergebnisse wurden angegeben als Koloniezahl in behandelten Agarplatten in Prozent der unbehandelten Kontrolle. Aus der so erhalte nen Dosiswirkungskurve wurde die IC₅₀ als Maß für die Wirksamkeit der Substanz ermittelt. Die Ergebnisse für die hier beschriebenen Verbindungen im Vergleich zu Adriamycin sind in Tabelle 1 zusammengefaßt.

[1] = Stability under weakly acidic conditions (qualitative statement); assay type: physicochemical; settings: unter schwach sauren Bedingungen
[2] = L1210, 168 h, continuous exposure over the whole incubation time (7 days, 37°C), substance mixed into upper agar layer, colony count vs untreated control, read-out: Dauerinku-bation IC50
[3] = L1210, 1 h incubation at 37°C, cells washed, then 7 days in agar, colony count vs untreated control, read-out: 1 h-Inku-bation IC50

| Structure (SMILES) | IC50 (L1210 Leukämiezellen; L1210, 168 h, read-out: Dauerinku-bation IC50) | IC50 (L1210 Leukämiezellen; L1210, read-out: 1 h-Inku-bation IC50) | Stabilität [1] | IC50 (L1210 Leukämiezellen; [2]) | IC50 (L1210 Leukämiezellen; [3]) |
| --- | --- | --- | --- | --- | --- |
| CC[C@@]1(O)C[C@H](O[C@H]2C[C@H](N(C)CCCl)[C@H](O)[C@H](C)O2)c2c(O)c3c(c(O)c2[C@H]1O)C(=O)c1cccc(O)c1C3=O [Verbindung 1, 7-0-(3′-N-Chlorethyl-3′-N-methyl-α-L-daunosaminyl)-β-rhodomycinon] | 0.03 µg/mL (≈ 0.0507 µM) | 0.11 µg/mL (≈ 0.186 µM) | relativ stabil | – | – |
| CC[C@@]1(O)C[C@H](O[C@H]2C[C@H](N(C)CCN(C)C)[C@H](O)[C@H](C)O2)c2c(O)c3c(c(O)c2[C@H]1O)C(=O)c1cccc(O)c1C3=O [Verbindung 2, 7-0-(3′-N-Dimethylaminoethyl-3′-N-methyl-α-L-,daunosaminyl)-β-rhodomycinon] | – | – | – | 0.033 µg/mL (≈ 0.0549 µM) | 0.12 µg/mL (≈ 0.2 µM) |
| CC[C@@]1(O)C[C@H](O[C@H]2C[C@H](N(C)CCN(C)CCNC)[C@H](O)[C@H](C)O2)c2c(O)c3c(c(O)c2[C@H]1O)C(=O)c1cccc(O)c1C3=O [Verbindung 3, 7-0-(3′-N-(N,N′-Dimethyl-ethylendiaminoethyl)-3′-N-methyl-α-L-daunosaminyl)-β-rhodomycinon] | – | – | – | 0.1 µg/mL (≈ 0.155 µM) | 0.6 µg/mL (≈ 0.932 µM) |
| CC[C@@]1(O)C[C@H](O[C@H]2C[C@H](N(C)CCNCCc3c[nH]cn3)[C@H](O)[C@H](C)O2)c2c(O)c3c(c(O)c2[C@H]1O)C(=O)c1cccc(O)c1C3=O [Verbindung 4, 7-0-(3′-N-Histaminoethyl-3′-N-methyl-α-L-daunosaminyl)-β-rhodomycinon] | – | – | – | 0.4 µg/mL (≈ 0.6 µM) | 1.2 µg/mL (≈ 1.8 µM) |

From EP0394983A2, “Anthracycline derivatives with cytostatic activity” (priority 1989, dated 1990)
